In ChEMBL document CHEMBL5321280, “Novel 4-Arylindolines Containing a Pyrido[3,2-d]pyrimidine Moiety as the Programmed Cell Death-1/Programmed Cell Death-Ligand 1 Interaction Inhibitors for Tumor Immunotherapy” (J Med Chem, 2023):
Calls of active or inactive are those of the source. The calls are words filed in the database; no cut-off is given here.

How the values were obtained:
[1] = target: Programmed cell death protein 1/Programmed cell death 1 ligand 1 (Homo sapiens, UniProt Q15116+Q9NZQ7); test: Inhibition of PD-1/PD-L1 (unknown origin) protein-protein interaction incubated for 105 mins by HTRF assay; type: protein-complex assay
Sequence of Programmed cell death protein 1/Programmed cell death 1 ligand 1 (Q15116 whole entry): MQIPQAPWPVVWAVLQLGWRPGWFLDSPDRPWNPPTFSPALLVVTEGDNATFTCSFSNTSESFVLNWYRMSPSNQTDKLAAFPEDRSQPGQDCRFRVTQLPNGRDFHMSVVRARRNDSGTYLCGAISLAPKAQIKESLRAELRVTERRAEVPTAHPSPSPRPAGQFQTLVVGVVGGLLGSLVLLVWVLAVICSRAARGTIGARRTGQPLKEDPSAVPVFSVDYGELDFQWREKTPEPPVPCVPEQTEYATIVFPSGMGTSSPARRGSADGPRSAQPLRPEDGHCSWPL
Sequence of Programmed cell death protein 1/Programmed cell death 1 ligand 1 (Q9NZQ7 whole entry): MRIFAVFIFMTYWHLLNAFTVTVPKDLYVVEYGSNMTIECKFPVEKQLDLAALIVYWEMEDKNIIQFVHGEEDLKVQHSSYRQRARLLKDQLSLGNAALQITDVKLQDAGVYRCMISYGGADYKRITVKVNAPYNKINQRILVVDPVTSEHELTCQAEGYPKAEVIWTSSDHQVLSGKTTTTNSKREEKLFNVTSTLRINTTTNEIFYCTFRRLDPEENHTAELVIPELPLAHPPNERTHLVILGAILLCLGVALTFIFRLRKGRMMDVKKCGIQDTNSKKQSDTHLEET

[2] = Metabolic stability in human liver microsomes assessed as half life; type: ADME, Microsome
[3] = system: T-cell; test: Immunomodulatory activity in concanavalin A stimulated BALB/c mouse T-lymphocyte co-cultured with mouse CT26 cells overexpressing PD-L1 assessed as T cell proliferation at 20 nM incubated for 48 hrs by flow cytometry (reference value: 58.47 +/- 2.07%); type: functional
[4] = system: T-cell; test: Immunomodulatory activity in concanavalin A stimulated BALB/c mouse T-lymphocyte co-cultured with mouse CT26 cells assessed as increase in T cell proliferation at 5 to 80 nM incubated for 48 hrs by flow cytometry; type: functional, cell-based; settings: dose 5-80 nM
[5] = system: T-cell; test: Immunomodulatory activity in concanavalin A stimulated BALB/c mouse T-lymphocyte co-cultured with mouse CT26 cells overexpressing PD-L1 assessed as increase in T cell proliferation at 5 to 80 nM incubated for 48 hrs by flow cytometry; type: functional, cell-based; settings: dose 5-80 nM
[6] = system: T-cell; test: Immunomodulatory activity in concanavalin A stimulated BALB/c mouse T-lymphocyte co-cultured with mouse CT26 cells assessed as T cell proliferation at 20 nM incubated for 48 hrs by flow cytometry (reference value: 64.08 +/- 0.91%); type: functional

`O[C@@H]1CCN(Cc2cnc3c(N4CCc5c(-c6ccccc6)cccc54)ncnc3c2)C1` gave an IC50 [1] of 13.2 nM.

For `O=C(O)[C@@H]1CCCCN1Cc1cnc2c(N3CCc4c(-c5ccccc5)cccc43)ncnc2c1`, the IC50 [1] was 26.6 nM.

Compound `c1ccc(-c2cccc3c2CCN3c2nccc3cc(CNC4CCOCC4)cnc23)cc1` has an IC50 [1] of 128 nM.

`NS(=O)(=O)NCCNCc1cnc2c(N3CCc4c(-c5ccccc5)cccc43)ncnc2c1` gave an IC50 [1] of 21.1 nM.

`CC(=O)NCCNCc1cnc2c(N3CCc4c(-c5ccccc5)cccc43)nccc2c1` showed an IC50 [1] of 84.5 nM.

With `c1ccc(-c2cccc3c2CCN3c2ncnc3cc(CNC4CCOCC4)cnc23)cc1` the half-life [2] was 1.51 h and the IC50 [1] was 21.2 nM.

Compound `NS(=O)(=O)NCCNCc1cnc2c(N3CCc4c(-c5ccc6c(c5)OCCO6)cccc43)ncnc2c1` has an IC50 [1] of 31.5 nM.

Compound `OCCNCc1cnc2c(N3CCc4c(-c5ccccc5)cccc43)nccc2c1` has an IC50 [1] of 31.7 nM.

Compound `CC(=O)NCCNCc1ccc2c(N3CCc4c(-c5ccccc5)cccc43)ncnc2c1` has an IC50 [1] of 126 nM.

Compound `O=C(O)[C@H]1CCCCN1Cc1cnc2c(N3CCc4c(-c5ccccc5)cccc43)ncnc2c1` has an IC50 [1] of 62.1 nM.

In the case of `O=C(O)[C@@H]1CCN(Cc2cnc3c(N4CCc5c(-c6ccccc6)cccc54)nccc3c2)C1`, the IC50 [1] is reported as 67.9 nM.

Compound `COCCNCc1cnc2c(N3CCc4c(-c5ccc6c(c5)OCCO6)cccc43)ncnc2c1` has an IC50 [1] of 15.5 nM.

With `OCCNCc1cnc2c(N3CCc4c(-c5ccccc5)cccc43)ncnc2c1` the Activity [3] was 60.06%, the Activity [4] was “Active” and the Activity [5] was “Active”. For the same compound, the half-life [2] was 3.47 h, the Activity [6] was 59.22% and the IC50 [1] was 6.8 nM.

Compound `OC[C@@H]1CCN(Cc2cnc3c(N4CCc5c(-c6ccccc6)cccc54)ncnc3c2)C1` has an IC50 [1] of 16 nM.

For `COCCNCc1cnc2c(N3CCc4c(-c5ccccc5)cccc43)ncnc2c1`, the IC50 [1] was 23.4 nM.

In the case of `O=C(O)[C@@H]1CCN(Cc2cnc3c(N4CCc5c(-c6ccccc6)cccc54)ncnc3c2)C1`, the Activity [3] is reported as 38.74%, the Activity [4] is reported as “Active” and the Activity [5] is reported as “Active”. It also gave an Activity [6] of 43.98% and an IC50 [1] of 8.6 nM.
